# Experimental data as given in ChEMBL document CHEMBL1132337, “Chiral resolution and stereospecificity of 6-phenyl-4-phenylethynyl- 1,4-dihydropyridines as selective A(3) adenosine receptor antagonists” (J Med Chem, 1999).
# Target: Adenosine receptor A2a (Rattus norvegicus) (UniProt P30543)
# Assay: Displacement of [3H]CGS-21680 from Adenosine A2A receptor of rat striatal membrane at 10e-4 M
# Sequence of Adenosine receptor A2a (Rattus norvegicus) (P30543 whole entry): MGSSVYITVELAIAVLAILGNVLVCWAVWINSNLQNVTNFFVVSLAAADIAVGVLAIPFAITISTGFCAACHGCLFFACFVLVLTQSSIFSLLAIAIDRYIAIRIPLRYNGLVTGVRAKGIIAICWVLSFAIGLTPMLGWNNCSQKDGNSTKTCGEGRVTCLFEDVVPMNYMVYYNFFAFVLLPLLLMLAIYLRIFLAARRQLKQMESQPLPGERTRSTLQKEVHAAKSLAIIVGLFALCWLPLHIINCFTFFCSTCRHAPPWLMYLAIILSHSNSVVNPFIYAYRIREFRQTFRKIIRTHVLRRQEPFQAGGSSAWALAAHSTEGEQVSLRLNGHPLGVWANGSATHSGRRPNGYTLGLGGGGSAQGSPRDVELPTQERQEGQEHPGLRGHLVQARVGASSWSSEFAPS
row,inhibition,Structure (SMILES)
1,10%,CCOC(=O)C1=C(c2ccccc2)N=C(C)/C(=C(/O)OC[C@H](O)CO)[C@H]1C#Cc1ccccc1
2,14%,CCO/C(O)=C1\C(C)=NC(c2ccccc2)=C(C(=O)OCc2ccccc2)[C@H]1C#Cc1ccccc1
3,10%,CCOC(=O)C1=C(c2ccccc2)N=C(C)/C(=C(/O)OC[C@H]2COC(C)(C)O2)[C@H]1C#Cc1ccccc1

# Further lines, the molecule ahead of its results:
row,Structure (SMILES),inhibition
1,CCO/C(O)=C1\C(C)=NC(c2ccccc2)=C(C(=O)OCc2ccccc2)C1C#Cc1ccccc1 (stereo unspecified),10%
2,CCOC(=O)C1=C(c2ccccc2)N=C(C)/C(=C(/O)OC[C@H]2COC(C)(C)O2)[C@@H]1C#Cc1ccccc1,10%
3,CCO/C(O)=C1\C(C)=NC(c2ccccc2)=C(C(=O)OCc2ccccc2)[C@@H]1C#Cc1ccccc1,11%
